Source: the supplement of paper PMC10307832

Columns and labels:
Experiment in all cases: relative viability (nuclei count vs DMSO), 5 days (fraction); higher = more cells survive
Veliparib + Navitoclax = compound: C[C@]1(c2nc3c(C(N)=O)cccc3[nH]2)CCCN1 [Veliparib] + CC1(C)CCC(c2ccc(Cl)cc2)=C(CN2CCN(c3ccc(C(=O)NS(=O)(=O)c4ccc(N[C@H](CCN5CCOCC5)CSc5ccccc5)c(S(=O)(=O)C(F)(F)F)c4)cc3)CC2)C1 [Navitoclax] (partner 0.5 µM)
Summary of the method: (§1)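 Each reported value is a median over duplicate plates. It expresses relative viability: treated-well nuclei count divided by vehicle-well nuclei count. Lung cancer cell lines in 1536-well plates were dosed by pin tool a day after seeding, alone with one drug or with a fixed anchor-drug dose plus five library-drug doses (not always all listed) in √10 steps, and nuclei were counted after 5 days.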

Veliparib + Decitabine = compound: C[C@]1(c2nc3c(C(N)=O)cccc3[nH]2)CCCN1 [Veliparib] + Nc1ncn([C@H]2C[C@H](O)[C@@H](CO)O2)c(=O)n1 [Decitabine] (partner 2 µM)
Summary of the method: as §1

[1] = compound: COC1=CC=C(C=C1)CN2C=CC3=C2C=C(C=C3)C(=O)NO + Nc1ncn([C@H]2C[C@H](O)[C@@H](CO)O2)c(=O)n1 [Decitabine] (partner 2 µM)
Summary of the method: as §1

[2] = compound: COC1=CC=C(C=C1)CN2C=CC3=C2C=C(C=C3)C(=O)NO + COc1cc2c(Oc3ccc(NC(=O)C4(C(=O)Nc5ccc(F)cc5)CC4)cc3F)ccnc2cc1OCCCN1CCOCC1 [Foretinib] (partner 0.25 µM)
Summary of the method: as §1

Cell Line: NCI-H727
- relative viability (Veliparib + Navitoclax; first compound 0.02 µM): 0.4
- relative viability (Veliparib + Navitoclax; first compound 0.06325 µM): 0.492
- relative viability (Veliparib + Navitoclax; first compound 0.2 µM): 0.504
- relative viability (Veliparib + Navitoclax; first compound 0.6325 µM): 0.369
- relative viability (Veliparib + Navitoclax; first compound 2 µM): 0.467
- relative viability (Veliparib + Decitabine; first compound 0.02 µM): 0.865
- relative viability (Veliparib + Decitabine; first compound 0.06325 µM): 0.758
- relative viability (Veliparib + Decitabine; first compound 0.2 µM): 0.856
- relative viability (Veliparib + Decitabine; first compound 0.6325 µM): 0.706
- relative viability (Veliparib + Decitabine; first compound 2 µM): 0.865
- relative viability ([1]; first compound 0.08 µM): 0.813
- relative viability ([1]; first compound 0.253 µM): 0.866
- relative viability ([1]; first compound 0.8 µM): 0.792
- relative viability ([1]; first compound 2.53 µM): 0.705
- relative viability ([1]; first compound 8 µM): 0.909
- relative viability ([2]; first compound 0.08 µM): 0.792
- relative viability ([2]; first compound 0.253 µM): 0.951
- relative viability ([2]; first compound 0.8 µM): 1.31
- relative viability ([2]; first compound 2.53 µM): 0.819
- relative viability ([2]; first compound 8 µM): 0.836

Cell Line: NCI-H838
- relative viability (Veliparib + Navitoclax; first compound 0.02 µM): 1.2
- relative viability (Veliparib + Navitoclax; first compound 0.06325 µM): 1.1
- relative viability (Veliparib + Navitoclax; first compound 0.2 µM): 1.12
- relative viability (Veliparib + Navitoclax; first compound 0.6325 µM): 1.11
- relative viability (Veliparib + Navitoclax; first compound 2 µM): 1.2
- relative viability (Veliparib + Decitabine; first compound 0.02 µM): 0.409
- relative viability (Veliparib + Decitabine; first compound 0.06325 µM): 0.453
- relative viability (Veliparib + Decitabine; first compound 0.2 µM): 0.408
- relative viability (Veliparib + Decitabine; first compound 0.6325 µM): 0.32
- relative viability (Veliparib + Decitabine; first compound 2 µM): 0.426
- relative viability ([1]; first compound 0.08 µM): 0.441
- relative viability ([1]; first compound 0.253 µM): 0.455
- relative viability ([1]; first compound 0.8 µM): 0.476
- relative viability ([1]; first compound 2.53 µM): 0.456
- relative viability ([1]; first compound 8 µM): 0.505
- relative viability ([2]; first compound 0.253 µM): 1.07
- relative viability ([2]; first compound 0.8 µM): 1
- relative viability ([2]; first compound 2.53 µM): 0.995
- relative viability ([2]; first compound 8 µM): 0.982

Cell Line: NCI-H1355
- relative viability (Veliparib + Navitoclax; first compound 0.06325 µM): 0.872
- relative viability (Veliparib + Navitoclax; first compound 0.2 µM): 0.9
- relative viability (Veliparib + Navitoclax; first compound 0.6325 µM): 0.904
- relative viability (Veliparib + Navitoclax; first compound 2 µM): 0.971
- relative viability (Veliparib + Decitabine; first compound 0.02 µM): 0.388
- relative viability (Veliparib + Decitabine; first compound 0.06325 µM): 0.29
- relative viability (Veliparib + Decitabine; first compound 0.2 µM): 0.371
- relative viability (Veliparib + Decitabine; first compound 0.6325 µM): 0.328
- relative viability (Veliparib + Decitabine; first compound 2 µM): 0.325
- relative viability ([1]; first compound 0.08 µM): 0.326
- relative viability ([1]; first compound 0.253 µM): 0.357
- relative viability ([1]; first compound 0.8 µM): 0.347
- relative viability ([1]; first compound 2.53 µM): 0.403
- relative viability ([1]; first compound 8 µM): 0.311
- relative viability ([2]; first compound 0.253 µM): 0.959
- relative viability ([2]; first compound 0.8 µM): 0.928
- relative viability ([2]; first compound 2.53 µM): 1.02
- relative viability ([2]; first compound 8 µM): 0.962

Cell Line: NCI-H1395
- relative viability (Veliparib + Navitoclax; first compound 0.06325 µM): 1.05
- relative viability (Veliparib + Navitoclax; first compound 0.2 µM): 1.01
- relative viability (Veliparib + Navitoclax; first compound 0.6325 µM): 1.11
- relative viability (Veliparib + Navitoclax; first compound 2 µM): 0.899
- relative viability (Veliparib + Decitabine; first compound 0.02 µM): 0.704
- relative viability (Veliparib + Decitabine; first compound 0.06325 µM): 0.626
- relative viability (Veliparib + Decitabine; first compound 0.2 µM): 0.686
- relative viability (Veliparib + Decitabine; first compound 0.6325 µM): 0.606
- relative viability (Veliparib + Decitabine; first compound 2 µM): 0.652
- relative viability ([1]; first compound 0.253 µM): 0.701
- relative viability ([1]; first compound 0.8 µM): 0.758
- relative viability ([1]; first compound 2.53 µM): 0.842
- relative viability ([1]; first compound 8 µM): 0.618
- relative viability ([2]; first compound 0.08 µM): 0.916
- relative viability ([2]; first compound 0.253 µM): 0.949
- relative viability ([2]; first compound 0.8 µM): 0.99
- relative viability ([2]; first compound 2.53 µM): 1.04
- relative viability ([2]; first compound 8 µM): 0.99

Cell Line: NCI-H1437
- relative viability (Veliparib + Navitoclax; first compound 0.02 µM): 1.02
- relative viability (Veliparib + Navitoclax; first compound 0.06325 µM): 0.997
- relative viability (Veliparib + Navitoclax; first compound 0.2 µM): 1.13
- relative viability (Veliparib + Navitoclax; first compound 0.6325 µM): 1.08
- relative viability (Veliparib + Navitoclax; first compound 2 µM): 1.05
- relative viability (Veliparib + Decitabine; first compound 0.02 µM): 0.606
- relative viability (Veliparib + Decitabine; first compound 0.06325 µM): 0.526
- relative viability (Veliparib + Decitabine; first compound 0.2 µM): 0.464
- relative viability (Veliparib + Decitabine; first compound 0.6325 µM): 0.533
- relative viability (Veliparib + Decitabine; first compound 2 µM): 0.497
- relative viability ([1]; first compound 0.08 µM): 0.558
- relative viability ([1]; first compound 0.253 µM): 0.608
- relative viability ([1]; first compound 0.8 µM): 0.547
- relative viability ([1]; first compound 2.53 µM): 0.576
- relative viability ([1]; first compound 8 µM): 0.606
- relative viability ([2]; first compound 0.08 µM): 1.05
- relative viability ([2]; first compound 0.253 µM): 1.21
- relative viability ([2]; first compound 0.8 µM): 1.22
- relative viability ([2]; first compound 2.53 µM): 1.34
- relative viability ([2]; first compound 8 µM): 1.27

Cell Line: NCI-H1650
- relative viability (Veliparib + Navitoclax; first compound 0.06325 µM): 0.93
- relative viability (Veliparib + Navitoclax; first compound 0.2 µM): 1.19
- relative viability (Veliparib + Navitoclax; first compound 0.6325 µM): 1.08
- relative viability (Veliparib + Navitoclax; first compound 2 µM): 1.32
- relative viability (Veliparib + Decitabine; first compound 0.02 µM): 0.256
- relative viability (Veliparib + Decitabine; first compound 0.06325 µM): 0.326
- relative viability (Veliparib + Decitabine; first compound 0.2 µM): 0.433
- relative viability (Veliparib + Decitabine; first compound 0.6325 µM): 0.43
- relative viability (Veliparib + Decitabine; first compound 2 µM): 0.308
- relative viability ([1]; first compound 0.08 µM): 0.358
- relative viability ([1]; first compound 0.253 µM): 0.407
- relative viability ([1]; first compound 0.8 µM): 0.423
- relative viability ([1]; first compound 2.53 µM): 0.392
- relative viability ([1]; first compound 8 µM): 0.328
- relative viability ([2]; first compound 0.08 µM): 0.764
- relative viability ([2]; first compound 0.253 µM): 1.14
- relative viability ([2]; first compound 0.8 µM): 1.29
- relative viability ([2]; first compound 2.53 µM): 1.27
- relative viability ([2]; first compound 8 µM): 0.766

Cell Line: NCI-H1651
- relative viability (Veliparib + Navitoclax; first compound 0.02 µM): 1.04
- relative viability (Veliparib + Navitoclax; first compound 0.06325 µM): 1.05
- relative viability (Veliparib + Navitoclax; first compound 0.2 µM): 1.1
- relative viability (Veliparib + Navitoclax; first compound 0.6325 µM): 1.01
- relative viability (Veliparib + Navitoclax; first compound 2 µM): 0.916
- relative viability (Veliparib + Decitabine; first compound 0.02 µM): 0.549
- relative viability (Veliparib + Decitabine; first compound 0.06325 µM): 0.43
- relative viability (Veliparib + Decitabine; first compound 0.2 µM): 0.348
- relative viability (Veliparib + Decitabine; first compound 0.6325 µM): 0.358
- relative viability (Veliparib + Decitabine; first compound 2 µM): 0.32
- relative viability ([1]; first compound 0.08 µM): 0.584
- relative viability ([1]; first compound 0.253 µM): 0.52
- relative viability ([1]; first compound 0.8 µM): 0.616
- relative viability ([1]; first compound 2.53 µM): 0.566
- relative viability ([1]; first compound 8 µM): 0.579
- relative viability ([2]; first compound 0.08 µM): 0.646
- relative viability ([2]; first compound 0.253 µM): 0.89
- relative viability ([2]; first compound 0.8 µM): 0.709
- relative viability ([2]; first compound 2.53 µM): 0.723
- relative viability ([2]; first compound 8 µM): 0.694

Cell Line: NCI-H1666
- relative viability (Veliparib + Navitoclax; first compound 0.02 µM): 1.03
- relative viability (Veliparib + Navitoclax; first compound 0.06325 µM): 0.696
- relative viability (Veliparib + Navitoclax; first compound 0.2 µM): 0.932
- relative viability (Veliparib + Navitoclax; first compound 0.6325 µM): 0.8
- relative viability (Veliparib + Navitoclax; first compound 2 µM): 1.03
- relative viability (Veliparib + Decitabine; first compound 0.02 µM): 0.716
- relative viability (Veliparib + Decitabine; first compound 0.06325 µM): 0.596
- relative viability (Veliparib + Decitabine; first compound 0.2 µM): 0.764
- relative viability (Veliparib + Decitabine; first compound 0.6325 µM): 0.645
- relative viability (Veliparib + Decitabine; first compound 2 µM): 0.701
- relative viability ([1]; first compound 0.08 µM): 0.639
- relative viability ([1]; first compound 0.253 µM): 0.797
- relative viability ([1]; first compound 0.8 µM): 0.81
- relative viability ([1]; first compound 2.53 µM): 0.659
- relative viability ([1]; first compound 8 µM): 0.723
- relative viability ([2]; first compound 0.08 µM): 0.755
- relative viability ([2]; first compound 0.253 µM): 1.06
- relative viability ([2]; first compound 0.8 µM): 0.985
- relative viability ([2]; first compound 2.53 µM): 0.963
- relative viability ([2]; first compound 8 µM): 1.06
